Experimental data reported in patent EP4813980A1, “EP300/CBP REGULATOR, AND PREPARATION METHOD THEREFOR AND USE THEREOF” (Miracure Biotechnology Limited, priority 2023, dated 2025).

What was measured:
22RV1 cells = assay: Cell growth inhibition, CellTiter-Glo, 72 h; format: cell-based; conditions: 72 h culture, mean of N=2
Experimental: (§1) 22RV1, vCap, MM1S and OPM-2 cells were cultured in RPMI-1640 medium (10% fetal bovine serum and 100 units of penicillin/streptomycin dual-antibody per mL were added to RPMI-1640) in a cell incubator at 37°C with 5% CO2, respectively. Cells in logarithmic growth phase were seeded into 96-well cell culture plates at 5×10^3 cells/100 µL/well and cultured overnight. Active compounds dissolved in DMSO at different concentrations were added with a final concentration of 0.5% DMSO. 1% Tween 20 was used as positive control and 0.5% DMSO was used as negative control. After 72 h of culture, an equal volume of CellTiter-Glo was added to each well, mixed by shaking for 2 min, and left standing at room temperature for 10 min. […] signal values were read with a microplate reader. Data were analyzed and graphs were generated using Prism 7.0. The values shown are mean ± SEM (N=2). […] The formula for inhibition rate is as follows: % Inhibition = (Icompound−IZPE)/(IHPE−IZPE) × 100 [formula]
(§2) The X-axis is compound concentration (nM), and the Y-axis is % Inhibition.

vCap cells = assay: Cell growth inhibition, CellTiter-Glo, 72 h; format: cell-based; conditions: Homo sapiens, 72 h culture, mean of N=2
Experimental: as §1, §2

Compound | IC50 (22RV1 cells; Homo sapiens) | IC50 (vCap cells) | IC50 (22RV1 cells)
CNC(=O)N1CCc2cc(C3CCN(C(=O)CCCCCCNc4ccc5c(c4)n(C)c(=O)n5C4CCC(=O)NC4=O)CC3)cc(N3CCCc4cc(-c5cnn(C)c5)c(C(F)F)cc43)c2C1 (stereo not drawn) [Compound 2028, 8-[7-(difluoromethyl)-6-(1-methylpyrazol-4-yl)-3,4-dihydro-2H-quinolin-1-yl]-6-[1-[7-[[1-(2,6-dioxo-3-piperidinyl)-3-methyl-2-oxo-benzimidazol-5-yl]amino]heptanoyl]-4-piperidinyl]-N-methyl-3,4-dihydro-1H-isoquinoline-2-carboxamide] | 0.1 nM | 0.26 nM | 
CC(=O)N1Cc2cc(C3CCN(C(=O)CCCCC#Cc4ccc5c(c4)n(C)c(=O)n5C4CCC(=O)NC4=O)CC3)cc(N3CCCc4cc(-c5cnn(C)c5)c(C(F)F)cc43)c2C1 (stereo not drawn) [Compound 2032, 3-{5-[7-(4-{2-acetyl-7-[7-(difluoromethyl)-6-(1-methylpyrazol-4-yl)-3,4-dihydro-2H-quinolin-1-yl]-1,3-dihydroisoindol-5-yl}piperidin-1-yl)-7-oxohept-1-yn-1-yl]-3-methyl-2-oxo-1,3-benzodiazol-1-yl}piperidine-2,6-dione] | 0.16 nM | 0.11 nM | 
CNC(=O)N1CCc2cc(C3CCN(CCN4CCOC(CNc5cccc6c5C(=O)N(C5CCC(=O)NC5=O)C6=O)C4)CC3)cc(N3CCCc4cc(-c5cnn(C)c5)c(C(F)F)cc43)c2C1 (stereo not drawn) [Compound 2010] | 0.08 nM | 0.193 nM | 
CNC(=O)N1CCc2cc(C3CCN(C(=O)CCCCCCNc4cccc5c4n(C)c(=O)n5C4CCC(=O)NC4=O)CC3)cc(N3CCCc4cc(-c5cnn(C)c5)c(C(F)F)cc43)c2C1 (stereo not drawn) [Compound 2016, 8-[7-(difluoromethyl)-6-(1-methylpyrazol-4-yl)-3,4-dihydro-2H-quinolin-1-yl)-6-[1-[7-[[1-(2,6-dioxo-3-piperidinyl)-3-methyl-2-oxobenzoimidazol-4-yl]amino]heptanoyl]-4-piperidinyl]-N-methyl-3,4-dihydro-1H-isoquinoline-2-carboxamide] | 0.01 nM | < 0.005 nM | 
CC(=O)N1Cc2cc(C3CCC(N(C)C4CCN(c5ccc6c(c5)CN(C5CCC(=O)NC5=O)C6=O)CC4)CC3)cc(N3CCCc4cc(-c5cnn(C)c5)c(C(F)F)cc43)c2C1 (stereo not drawn) [Compound 2079, 3-(5-((4-((2-acetyl-7-(7-(difluoromethyl)-6-(1-methyl-1H-pyrazol-4-yl)-3,4-dihydroquinolin-1(2H)-yl)isoindolin-5-yl)cyclohexyl)(methyl)amino)piperidin-1-yl)-1-oxoisoindolin-2-yl)piperidine-2,6-dione] | 3.76 nM |  | 
CNC(=O)N1CCc2cc(C3CCN(C(=O)CCCCCCCNc4ccc5c(c4)n(C)c(=O)n5C4CCC(=O)NC4=O)CC3)cc(N3CCCc4cc(-c5cnn(C)c5)c(C(F)F)cc43)c2C1 (stereo not drawn) [Compound 2013] | 0.01 nM | 0.449 nM | 
C=CC(=O)NC1CCC(n2c([C@@H]3CCCC(=O)N3c3ccc(F)c(F)c3)nc3cc(-c4c(C)noc4C)ccc32)CC1 (stereo partly drawn) [Compound 1371] |  |  | 2090 nM
CNC(=O)N1CCc2cc(C3CCN(CCN4CCC(CNc5cccc6c5C(=O)N(C5CCC(=O)NC5=O)C6=O)CC4)CC3)cc(N3CCCc4cc(-c5cnn(C)c5)c(C(F)F)cc43)c2C1 (stereo not drawn) [Compound 2021] | 0.5 nM | 0.545 nM | 
CC(=O)N1Cc2cc(C3CCN(C(=O)CN4Cc5cc6c(cc5C4)C(=O)N(C4CCC(=O)NC4=O)C6=O)CC3)cc(N3CCCc4cc(-c5cnn(C)c5)c(C(F)F)cc43)c2C1 (stereo not drawn) [Compound 2050] | 5.25 nM |  | 
CC(=O)N1Cc2cc(C3CCN(CCN4CCC(CNc5cccc6c5C(=O)N(C5CCC(=O)NC5=O)C6=O)CC4)CC3)cc(N3CCCc4cc(-c5cnn(C)c5)c(C(F)F)cc43)c2C1 (stereo not drawn) [Compound 2019] | 2.43 nM | 1.25 nM | 
CC(=O)N1Cc2cc(C3CCN(CCN4CCC(CCc5cccc6c5C(=O)N(C5CCC(=O)NC5=O)C6=O)CC4)CC3)cc(N3CCCc4cc(-c5cnn(C)c5)c(C(F)F)cc43)c2C1 (stereo not drawn) [Compound 2005] | 7.7 nM |  | 
COC(=O)N1CCc2cc(C3CCN(C(=O)CCCCCCCNc4ccc5c(c4)C(=O)N(C4CCC(=O)NC4=O)C5=O)CC3)cc(N3CCCc4cc(-c5cnn(C)c5)c(C(F)F)cc43)c2C1 (stereo not drawn) [Compound 2026, methyl 8-[7-(difluoromethyl)-6-(1-methylpyrazol-4-yl)-3,4-dihydro-2H-quinolin-1-yl]-6-[1-[8-[[2-(2,6-dioxo-3-piperidinyl)-1,3-dioxoisoindolin-5-yl]amino]octanoyl]-4-piperidinyl]-3,4-dihydro-1H-isoquinoline-2-carboxylate] | 22.4 nM |  | 
COC(=O)N1Cc2cc(C3CCN(C(=O)CCOCCOCCOCCOCCNc4ccc5c(c4)C(=O)N(C4CCC(=O)NC4=O)C5=O)CC3)cc(N3CCCc4cc(-c5cnn(C)c5)c(C(F)F)cc43)c2C1 (stereo not drawn) [Compound 2024] | 3850 nM | 4610 nM | 
CC(=O)N1Cc2cc(C3CCN(CCc4ccc(COc5cccc6c5CN(C5CCC(=O)NC5=O)C6=O)cc4)CC3)cc(N3CCCc4cc(-c5cnn(C)c5)c(C(F)F)cc43)c2C1 (stereo not drawn) [Compound 2031] | 0.04 nM | 0.21 nM | 
CNC(=O)N1CCc2cc(C3CCN(CCN4CCC(CCc5cccc6c5C(=O)N(C5CCC(=O)NC5=O)C6=O)CC4)CC3)cc(N3CCCc4cc(-c5cnn(C)c5)c(C(F)F)cc43)c2C1 (stereo not drawn) [Compound 2014, 8-(7-(difluoromethyl)-6-(1-methylpyrazol-4-yl)-3,4-dihydro-2H-quinolin-1-yl)-6-[1-[2-[4-[2-[2-(2,6-dioxo-3-piperidinyl)-1,3-dioxoisoindolin-4-yl]ethyl]-1-piperidinyl]ethyl]-4-piperidinyl]-N-methyl-3,4-dihydro-1H-isoquinoline-2-carboxamide] |  | 11 nM | 
CC(=O)N1Cc2cc(C3CCN(CC4CCN(CCOc5ccc(N6CCC(=O)NC6=O)cc5)CC4)CC3)cc(N3CCCc4cc(-c5cnn(C)c5)c(C(F)F)cc43)c2C1 [Compound 2072] | 2020 nM |  | 
CNC(=O)N1CCc2cc(C3CCN(Cc4ccc(COc5cccc6c5CN(C5CCC(=O)NC5=O)C6=O)cc4)CC3)cc(N3CCCc4cc(-c5cnn(C)c5)c(C(F)F)cc43)c2C1 (stereo not drawn) [Compound 2015, 8-(7-(difluoromethyl)-6-(1-methyl-1H-pyrazol-4-yl)-3,4-dihydroquinolin-1(2H)-yl)-6-(1-(4-(((2-(2,6-dioxopiperidin-3-yl)-1-oxoisoindolin-4-yl)oxy)methyl)benzyl)piperidin-4-yl)-N-methyl-3,4-dihydroisoquinoline-2(1H)-carboxamide] | 0.05 nM | 0.01 nM | 
CC(=O)N1Cc2cc(C3CCN(CC4CCN(CCCc5cccc6c5C(=O)N(C5CCC(=O)NC5=O)C6=O)CC4)CC3)cc(N3CCCc4cc(-c5cnn(C)c5)c(C(F)F)cc43)c2C1 (stereo not drawn) [Compound 2020] | 1.87 nM | 0.53 nM | 
CC(=O)N1Cc2cc(C3CCN(Cc4ccc(CCOc5cccc6c5CN(C5CCC(=O)NC5=O)C6=O)nc4)CC3)cc(N3CCCc4cc(-c5cnn(C)c5)c(C(F)F)cc43)c2C1 (stereo not drawn) [Compound 2035, 3-[4-(2-{5-[(4-{2-acetyl-7-[7-(difluoromethyl)-6-(1-methylpyrazol-4-yl)-3,4-dihydro-2H-quinolin-1-yl]-1,3-dihydroisoindol-5-yl}piperidin-1-yl)methyl]pyridin-2-yl}ethoxy)-1-oxo-3H-isoindol-2-yl]piperidine-2,6-dione] | 2.6 nM |  | 
CC(=O)N1Cc2cc(C3CCN(CC4CCN(c5cccc6c5CN(C5CCC(=O)NC5=O)C6=O)CC4)CC3)cc(N3CCCc4cc(-c5cnn(C)c5)c(C(F)F)cc43)c2C1 (stereo not drawn) [Compound 2047] | > 10000 nM |  | 
C=CC(=O)N1CCC(c2cc3c(c(N4CCCc5cc(-c6cnn(C)c6)c(C(F)F)cc54)c2)CN(C(=O)NC)CC3)CC1 [Compound 1346, 6-(1-acryloylpiperidin-4-yl)-8-(7-(difluoromethyl)-6-(1-methyl-1H-pyrazol-4-yl)-3,4-dihydroquinolin-1(2H)-yl)-N-methyl-3,4-dihydroisoquinoline-2(1H)-carboxamide] | 81800 nM |  | 
CC(=O)N1Cc2cc(C3CCN(C(=O)Cn4cc(COc5cccc6c5CN(C5CCC(=O)NC5=O)C6=O)nn4)CC3)cc(N3CCCc4cc(-c5cnn(C)c5)c(C(F)F)cc43)c2C1 (stereo not drawn) [Compound 2046] | 14 nM |  | 
CC#CC(=O)N1CCC(n2nc(N3CCCc4cc(-c5cnn(C)c5)c(C(F)F)cc43)c3c2CCN(C(=O)NC)C3)CC1 [Compound 1376] | 2650 nM |  | 
CNC(=O)N1Cc2cc(C3CCN(C(=O)CCOCCOCCOCCOCCNc4ccc5c(c4)C(=O)N(C4CCC(=O)NC4=O)C5=O)CC3)cc(N3CCCc4cc(-c5cnn(C)c5)c(C(F)F)cc43)c2C1 (stereo not drawn) [Compound 2023] | 434 nM |  | 
CC(=O)N1Cc2cc(C3CCN(CCN4CCC(CNc5cccc6c5CN(C5CCC(=O)NC5=O)C6=O)CC4)CC3)cc(N3CCCc4cc(-c5cnn(C)c5)c(C(F)F)cc43)c2C1 (stereo not drawn) [Compound 2061] | 3.48 nM |  | 
C=CS(=O)(=O)N[C@H]1CC[C@H](n2c([C@@H]3CCCC(=O)N3c3ccc(F)c(F)c3)nc3cc(-c4c(C)noc4C)ccc32)CC1 [Compound 1370] | 1610 nM |  | 
CC(=O)N1Cc2cc(C3CCN(CC4CCN(CCNc5cccc6c5CN(C5CCC(=O)NC5=O)C6=O)CC4)CC3)cc(N3CCCc4cc(-c5cnn(C)c5)c(C(F)F)cc43)c2C1 (stereo not drawn) [Compound 2060] | 6.8 nM |  | 
CC(=O)N1Cc2cc(C3CCN(CCN4Cc5cc6c(cc5C4)C(=O)N(C4CCC(=O)NC4=O)C6=O)CC3)cc(N3CCCc4cc(-c5cnn(C)c5)c(C(F)F)cc43)c2C1 (stereo not drawn) [Compound 2059] | 9.42 nM |  | 
